# Data as given in US8664220B2, “Polycyclic compounds as lysophosphatidic acid receptor antagonists” (Amira Pharmaceuticals, Inc., priority 2009, dated 2014).
# What was measured:
# human LPA1 = molecular target: T1, human LPA1 (Homo sapiens, UniProt Q92633); test: LPA1 calcium flux assay; type: cell-based; details: human LPA1 expressing CHO cells, stimulated with 10 nM LPA; read-out: HLPA1 Ca Flux IC50
# T1 construct: the full-length cDNA for human LPA1 was obtained by PCR of the reverse transcription reaction; expressed in transfected cells
# T1 sequence (Q92633 whole entry): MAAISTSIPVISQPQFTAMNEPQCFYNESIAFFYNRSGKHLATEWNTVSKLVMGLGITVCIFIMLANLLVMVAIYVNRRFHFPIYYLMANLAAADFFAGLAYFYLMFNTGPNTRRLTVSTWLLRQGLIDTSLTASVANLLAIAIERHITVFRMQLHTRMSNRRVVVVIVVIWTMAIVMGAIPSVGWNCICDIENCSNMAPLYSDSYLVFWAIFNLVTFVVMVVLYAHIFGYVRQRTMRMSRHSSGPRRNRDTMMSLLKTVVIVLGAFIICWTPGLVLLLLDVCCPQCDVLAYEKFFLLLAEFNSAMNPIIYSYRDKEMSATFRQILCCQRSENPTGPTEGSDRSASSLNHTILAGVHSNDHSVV
# Summary of the method: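 CHO cells stably expressing human LPA1, serum-starved overnight and loaded with Calcium 4 dye in HBSS/20 mM Hepes/0.3% fatty-acid-free HSA, 1 h at 37 °C. Compounds pre-incubated 30 min at room temperature, then 10 nM LPA added; intracellular Ca2+ flux measured and IC50 from titration curves.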
# [1] = tested on: A2058 human melanoma cells; test: LPA1 chemotaxis assay; type: cell-based; details: LPA 100 nM, read-out: IC50, inhibition of LPA-driven chemotaxis
# Protocol: Chemotaxis of the A2058 human melanoma cells was measured using the Neuroprobe ChemoTx® System plates (8 μm pore size, 5.7 mm diameter sites). The filter sites were coated with 0.001% fibronectin (Sigma) in 20 mM Hepes, pH 7.4 and allowed to dry. A2058 cells were serum-starved for 24 hours, then harvested with Cell Stripper and resuspended in DMEM containing 0.1% fatty-acid-free bovine serum albumin (BSA) to a concentration of 1×10^6/ml. Cells were mixed with an equal volume of test compound (2×) in DMEM containing 0.1% fatty-acid-free BSA and incubated at 37° C. for 15 minutes. LPA (100 nM in DMEM containing 0.1% fatty-acid-free BSA) or vehicle was added to each well of the lower chamber and 50 μl of the cell suspension/test compound mix was applied to the upper portion of the ChemoTx plate. Plates were incubated at 37° C. for three hours and then the cells removed from the upper portion by rinsing with PBS and scraping. The filter was dried then stained with HEMA 3 Staining System (Fisher Scientific). The absorbance of the filter was read at 590 nm and IC50s were determined using Symyx Assay Explorer.
# [2] = tested on: bleomycin-induced lung fibrosis; test: Bleomycin-induced lung fibrosis model in mice; type: in vivo, mouse; details: acute setting (3 day)
# From the text: Bleomycin-induced Lung Fibrosis Model in Mice Female CD-1 mice (Harlan, 25-30 g) are housed 4 per cage, given free access to food and water and allowed to acclimate for at least 7 days prior to test initiation. After the habituation phase, mice are lightly anesthetized with isoflurane (5% in 100% O2) and administered with bleomycin sulfate (0.01-5 U/kg, Henry Schein) via intratracheal instillation (Cuzzocrea S et al. Am J Physiol Lung Cell Mol Physiol. 2007 May; 292(5):[…]-104. Epub 2007 Jan. 12.). Mice are returned to their cages and monitored daily for the duration of the experiment. Test compound or vehicle is delivered po, ip or sc daily. The route and frequency of dosing is based on previously determined pharmacokinetic properties. […] BALF is analyzed for concentrations of inflammatory, pro-fibrotic and tissue injury biomarkers including transforming growth factor β1, hyaluronic acid, tissue inhibitor of metalloproteinase-1, matrix matelloproteinase-7, connective tissue growth factor and lactate dehydrogenase activity, using commercially available ELISA. […] Total cell counts are then obtained using a Hemavet hematology system (Drew Scientific, Wayne, Pa.) and differential cells counts are determined using Shandon cytospin (Thermo Scientific, Waltham, Mass.). […] The data are plotted using Graphpad prism and statistical differences between groups determined.
# nerve-injured mice = details: pretreatment; cited from earlier work
# [3] = tested on: human foetal lung fibroblasts; details: cited from earlier work
# [4] = tested on: renal fibrosis, unilateral ureteral obstruction (UUO); details: UUO mice; cited from earlier work
# [5] = tested on: mouse epithelial renal cell line, MCT; details: co-treatment with LPA, MCT cells; cited from earlier work
# [6] = tested on: pancreatic cancer cell lines; details: cited from earlier work
structure (smiles),measurement,setting,value
"Cc1noc(-c2ccc(-c3ccc(C4(C(=O)O)CC4)cc3)cc2)c1C(O)c1cn(Cc2ccccc2)nn1 (single isomer, unassigned) [Compound 1-41, 1-(4′-{4-[(1-Benzyl-1H-[1,2,3]triazol-4-yl)-hydroxy-methyl]-3-methyl-isoxazol-5-yl}-biphenyl-4-yl)-cyclopropanecarboxylic acid]",IC50,human LPA1,< 0.3 µM
same,IC50,[1],< 0.1 µM
same,collagen concentration in broncheoalveolar lavage fluid (BALF),[2],significantly reduced
same,total protein concentration in broncheoalveolar lavage fluid (BALF),[2],significantly reduced
"Cc1noc(-c2ccc(-c3ccc(C4(C(=O)O)CC4)cc3)cc2)c1C(O)c1cn(Cc2ccccc2)nn1 (stereo not drawn) [Compound 1-25, 1-(4′-{4-[(1-Benzyl-1H-[1,2,3]triazol-4-yl)-hydroxy-methyl]-3-methyl-isoxazol-5-yl}-biphenyl-4-yl)-cyclopropanecarboxylic acid]",IC50,human LPA1,< 0.3 µM
same,IC50,[1],< 0.1 µM
"Cc1noc(-c2ccc(-c3ccc(C4(C(=O)NS(C)(=O)=O)CC4)cc3)cc2)c1Nc1nnc(-c2ccccc2)o1 [Compound 3-4, N-(1-{4′-[3-Methyl-4-(5-phenyl-[1,3,4]oxadiazol-2-ylamino)-isoxazol-5-yl]-biphenyl-4-yl}-cyclopropanecarbonyl)-methanesulfonamide]",IC50,human LPA1,< 0.3 µM
"Cc1noc(-c2ccc(-c3ccc(C4(C(=O)NS(C)(=O)=O)CC4)cc3)cc2)c1Nc1cccc(Cc2ccccc2)n1 [Compound 3-5, N-(1-{4′-[4-(6-Benzyl-pyridin-2-ylamino)-3-methyl-isoxazol-5-yl]-biphenyl-4-yl}-cyclopropanecarbonyl)-methanesulfonamide]",IC50,human LPA1,< 0.3 µM
"Cc1noc(-c2ccc(-c3ccc(C4(C(=O)NS(C)(=O)=O)CC4)cc3)cc2)c1Nc1cccc(-c2ccccc2)n1 [Compound 3-6, N-(1-{4′-[3-Methyl-4-(6-phenyl-pyridin-2-ylamino)-isoxazol-5-yl]-biphenyl-4-yl}-cyclopropanecarbonyl)-methanesulfonamide]",IC50,human LPA1,< 0.3 µM
C[C@@H](N)[C@H]1CC[C@H](C(=O)Nc2ccncc2)CC1 [Compound Y-27632],allodynia and hyperalgesia,nerve-injured mice,completely abolished
Cc1noc(-c2ccc(CSCCC(=O)O)cc2)c1NC(=O)OC(C)c1ccccc1Cl (stereo not drawn) [Ki16425],chemotaxis of human foetal lung fibroblasts induced by BAL from IPF patients,[3],blocked
same,development of renal fibrosis,[4],closely resembled the LPA1 (−/−) mice
same,LPA-induced increase in expression of the profibrotic cytokine CTGF,[5],almost completely suppressed
same,LPA-induced and ascites-induced invasion activity,[6]; highly peritoneal metastatic pancreatic cancer cell line,blocked
same,in vitro migration in response to LPA and peritoneal fluid (ascites) from pancreatic cancer patients,[6]; pancreatic cancer cell lines,effectively blocked
